# Laboratory results published in PMC7334220, “Diamond Blackfan anemia is mediated by hyperactive Nemo-like kinase” (Nature Communications, 2020).
# Assays:
# NLK = biological target: T1, NLK (Homo sapiens, UniProt Q9UBE8); assay: DiscoveRX kinase profile analysis of SD208, NLK; format: biochemical; details: kinase profiling, Supplementary Fig. 2a
# T1 construct: NLK, p38, or ALK5 for in vitro kinase assays were immunopurified from Kp53A1 cells; endogenous in cells; immunoprecipitated with anti-NLK (Abcam AB97642)
# T1 sequence (Q9UBE8 1-527): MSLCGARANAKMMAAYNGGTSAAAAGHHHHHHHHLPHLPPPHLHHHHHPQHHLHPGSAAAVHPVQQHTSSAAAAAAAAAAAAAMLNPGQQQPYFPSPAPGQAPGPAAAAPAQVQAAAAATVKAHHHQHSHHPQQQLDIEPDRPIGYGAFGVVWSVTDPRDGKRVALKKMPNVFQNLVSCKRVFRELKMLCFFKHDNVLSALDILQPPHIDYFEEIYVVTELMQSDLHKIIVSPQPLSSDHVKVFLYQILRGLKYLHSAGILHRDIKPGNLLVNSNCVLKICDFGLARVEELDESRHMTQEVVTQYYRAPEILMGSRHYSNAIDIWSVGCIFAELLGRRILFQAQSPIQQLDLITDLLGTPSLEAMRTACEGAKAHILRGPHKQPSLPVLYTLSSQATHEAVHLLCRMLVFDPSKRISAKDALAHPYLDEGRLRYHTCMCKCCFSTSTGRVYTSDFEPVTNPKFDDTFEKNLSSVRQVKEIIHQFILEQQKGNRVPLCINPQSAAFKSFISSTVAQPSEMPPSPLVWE
# Protocol: Supplementary Fig. 2. SD208 and NLK siRNA are specific. (a) The top 22 hits from DiscoveRX kinase profile analysis of SD208. (b) Human cord blood CD34+ progenitors were transduced shRNA against luciferase (shLuc) or RPS19 (shRPS19) and differentiated in erythroid media in the presence […]
# days. Cells were counted and assessed for cell surface expression of CD235. Effective inhibition of p38 activity was assessed by lysis of treated controls and Western blot analysis of pp38. (c) Cord blood CD34+ progenitors were transduced with shRNA against RPS19 and either non-targeting (NT) or 1 of 3 different shRNA sequences against NLK. After sorting, cells were differentiated for 12 days. Lysates were subjected to qRT-PCR to assess NLK expression (Upper) and the number of CD235+ erythroblasts was determined by flow cytometry and is expressed relative to erythroid expansion of control cells (Lower). (d) Kp53A1 cells were untransfected (Unt), transfected with a non-targeting sequence (NT), or siRNA against NLK (siNLK). Phosphorylation status of p38, JNK and ERK was determined by treating transfected Kp53A1 cells EPO prior to Western blot analysis for pp38, pJNK and pERK. Transfected cells were cultured for 48 hours prior to lysis. Lysates were subjected to SDS-PAGE and protein expression of the listed proteins was determined by Western blot analysis. […]
# DBA patient HSPCs = assay: Erythroid differentiation (CD235+) of CD34+ HSPCs from DBA patient bone marrow; format: cell-based, human; details: 5 µM SD208; three DBA patients
# Protocol: Cells were counted and assessed for cell surface expression of CD235. b Lin-Kit^+ hematopoietic progenitors were obtained from three mouse embryos expressing tetracycline-inducible shRNA against RPS19 at day E14.5 or three untreated mice, and thee mature RPL11^+/+ or three mature RPL11^+/lox mice treated with tamoxifen for eight weeks. […] Values were expressed as a percentage relative to untreated controls. c, d Intracellular phosphorylation of NLK at Thr298 was determined by capillary electrophoresis using the Peggy Sue™ Automated Western blotting platform. After lysis, 4 µg of protein from the CD235^+ population was probed against pThr298-NLK and normalized to GAPDH. […] After counting the total cell population, the ratio of CD235^+ erythroblasts was determined by flow cytometry and number of CD235^+ erythroblasts calculated. This was expressed as a percentage of the average number of erythroid cells present in untreated healthy controls. f NLK phosphorylation was assessed by capillary electrophoresis as above. Bars represent means ± SD with individual data points overlaid. […] Statistics: two-tailed Student’s t test, significant *p < 0.05. Also see Supplementary Fig. 8. Source data are provided as a Source Data file. […]
compound,measurement,setting,value
Fc1ccc(Cl)cc1-c1nc(Nc2ccncc2)c2nccnc2n1 [SD208],inhibition at 10 µM,NLK,96.8%
same,mean increase of CD235+ erythroblast differentiation with SD208,DBA patient HSPCs,2.11 fold
